After the bases stand the sugars from the 5' end (letter, count) and the backbone: PS all phosphorothioate, else s phosphorothioate and o phosphodiester by linkage. Methylation of C is not given here. k = constrained ethyl (cEt); d = 2'-deoxy (DNA)
Target: MALAT1
Conditions: ASO, A431, 0.005 µM

AGATTGCCCCAACACT (sugars k3 d10 k3, PS)
target mRNA inhibition: 38%

AACGAAACATTGGCAC (sugars k3 d10 k3, PS)
target mRNA inhibition: 48%

ACCACTCGCTTTCCCT (sugars k3 d10 k3, PS)
target mRNA inhibition: 35%

CACCAAATCGCACTGG (sugars k3 d10 k3, PS)
target mRNA inhibition: -7%

CAGCTTCAATCACAAA (sugars k3 d10 k3, PS)
target mRNA inhibition: 33%

GAAATCGGAGCAGCAC (sugars k3 d10 k3, PS)
target mRNA inhibition: 1%

CGCCTTCCCGTACTTC (sugars k3 d10 k3, PS)
target mRNA inhibition: 57%

AGGCAAATTAATGGCC (sugars k3 d10 k3, PS)
target mRNA inhibition: 8%

CTACCTTCATCACCAA (sugars k3 d10 k3, PS)
target mRNA inhibition: 2%

ACCAAATCGCACTGGC (sugars k3 d10 k3, PS)
target mRNA inhibition: 3%

GAACCCCGTCCTGGAA (sugars k3 d10 k3, PS)
target mRNA inhibition: -18%

AATTGCACTCGCTCCT (sugars k3 d10 k3, PS)
target mRNA inhibition: 29%

CTAAGCGAATGGCTTT (sugars k3 d10 k3, PS)
target mRNA inhibition: 22%

CCCAAAAGCTCTATAC (sugars k3 d10 k3, PS)
target mRNA inhibition: 6%

AATGACGCAATTCTCC (sugars k3 d10 k3, PS)
target mRNA inhibition: 21%

CATCACCAAATTGCAC (sugars k3 d10 k3, PS)
target mRNA inhibition: 28%

CCAAGCCAAGCCGCCT (sugars k3 d10 k3, PS)
target mRNA inhibition: 5%

ATTATGGATCATGCCC (sugars k3 d10 k3, PS)
target mRNA inhibition: 17%

ATGGAGGTATGACATA (sugars k3 d10 k3, PS)
target mRNA inhibition: 20%

TTGATCCCAACTCATC (sugars k3 d10 k3, PS)
target mRNA inhibition: 33%

CTGCAAACTTTAGACA (sugars k3 d10 k3, PS)
target mRNA inhibition: 7%

CAATAGTACTATAGCA (sugars k3 d10 k3, PS)
target mRNA inhibition: 7%

CCCACCCAGCATTACA (sugars k3 d10 k3, PS)
target mRNA inhibition: 18%

AAGCCCACCCTCTAAG (sugars k3 d10 k3, PS)
target mRNA inhibition: 21%

AGCATACCTTAACATC (sugars k3 d10 k3, PS)
target mRNA inhibition: 19%

CGAAACTCCCCCATTA (sugars k3 d10 k3, PS)
target mRNA inhibition: 15%

AACAGGTCATCTATTC (sugars k3 d10 k3, PS)
target mRNA inhibition: 33%

CTCCATGAAGAAGCTT (sugars k3 d10 k3, PS)
target mRNA inhibition: 49%

CAGTTGCCGCCAGCCC (sugars k3 d10 k3, PS)
target mRNA inhibition: -3%

TCTTAACAGCTTATGG (sugars k3 d10 k3, PS)
target mRNA inhibition: 31%

AGCTAGGGAAAAGTGG (sugars k3 d10 k3, PS)
target mRNA inhibition: -10%

GGCCAGACCAACCCCC (sugars k3 d10 k3, PS)
target mRNA inhibition: 3%

AAATCCTGATCTGGTC (sugars k3 d10 k3, PS)
target mRNA inhibition: 27%

GGTCAATAGTGTAAAA (sugars k3 d10 k3, PS)
target mRNA inhibition: 43%

GCCTTCGGTGCCTTTA (sugars k3 d10 k3, PS)
target mRNA inhibition: -2%

GGATAAAAGCAGCTCC (sugars k3 d10 k3, PS)
target mRNA inhibition: 32%

TGAAAACCCACTCTTG (sugars k3 d10 k3, PS)
target mRNA inhibition: 0%

CCTCAATGCCTACCGC (sugars k3 d10 k3, PS)
target mRNA inhibition: 17%

TGCCAACTAATTGCCA (sugars k3 d10 k3, PS)
target mRNA inhibition: 23%

GAGTAACTACCAGCCA (sugars k3 d10 k3, PS)
target mRNA inhibition: 37%

CTGCACCACCAGAAAT (sugars k3 d10 k3, PS)
target mRNA inhibition: 20%

CTACAACAAGTAAGCC (sugars k3 d10 k3, PS)
target mRNA inhibition: 7%

TGCCAACTTGGAAGTT (sugars k3 d10 k3, PS)
target mRNA inhibition: 32%

AAGTATTACTCTAATC (sugars k3 d10 k3, PS)
target mRNA inhibition: 9%

CACTACTCCAAGCATT (sugars k3 d10 k3, PS)
target mRNA inhibition: 23%

TCAATTTATAGACCCC (sugars k3 d10 k3, PS)
target mRNA inhibition: 47%

TGACTGAATATGAACC (sugars k3 d10 k3, PS)
target mRNA inhibition: 41%

AATTAATGCACTGGTA (sugars k3 d10 k3, PS)
target mRNA inhibition: 19%

ACAAATACGACTGCTT (sugars k3 d10 k3, PS)
target mRNA inhibition: 16%

TACTCCAAGCATTGGG (sugars k3 d10 k3, PS)
target mRNA inhibition: 0%

CCAGTTCAATACTTTC (sugars k3 d10 k3, PS)
target mRNA inhibition: 13%

ATAGACGGAGAACAAC (sugars k3 d10 k3, PS)
target mRNA inhibition: 21%

ACGCCTCAATCCCACA (sugars k3 d10 k3, PS)
target mRNA inhibition: 27%

TTACTGGTTTAAGTTG (sugars k3 d10 k3, PS)
target mRNA inhibition: 24%

CCCAGTTCAATACTTT (sugars k3 d10 k3, PS)
target mRNA inhibition: 25%

TAGTTAATGTCAGCCC (sugars k3 d10 k3, PS)
target mRNA inhibition: 41%

GCGGACTTTCTCCCCC (sugars k3 d10 k3, PS)
target mRNA inhibition: -24%

AGCCAAGCACTCATAT (sugars k3 d10 k3, PS)
target mRNA inhibition: 17%

AGTGTTCGCAGACAAA (sugars k3 d10 k3, PS)
target mRNA inhibition: 34%

ACTGGATAAGTATTAT (sugars k3 d10 k3, PS)
target mRNA inhibition: 46%

CTAAGACTTTAAGTTC (sugars k3 d10 k3, PS)
target mRNA inhibition: 27%

ACGGCCCGCACGGAAA (sugars k3 d10 k3, PS)
target mRNA inhibition: 16%

TGTCTAAGAGGTTATT (sugars k3 d10 k3, PS)
target mRNA inhibition: 10%

ATACGACTGCTTAAAA (sugars k3 d10 k3, PS)
target mRNA inhibition: 20%

AACAACTCGCATCACC (sugars k3 d10 k3, PS)
target mRNA inhibition: 17%

CGCTGCGCTTAAGAGG (sugars k3 d10 k3, PS)
target mRNA inhibition: 10%

GCCCACAGGAACAAGT (sugars k3 d10 k3, PS)
target mRNA inhibition: 25%

TTTAAGGTTGCATCTG (sugars k3 d10 k3, PS)
target mRNA inhibition: 41%

CCTTCTGAACCGGAGC (sugars k3 d10 k3, PS)
target mRNA inhibition: -4%

AGGATGTATATAGTTC (sugars k3 d10 k3, PS)
target mRNA inhibition: 2%

GGAATTATTATATGCT (sugars k3 d10 k3, PS)
target mRNA inhibition: 54%

ATCCTGAAATCCCCTA (sugars k3 d10 k3, PS)
target mRNA inhibition: 8%

GGAGAACAACTCGCAT (sugars k3 d10 k3, PS)
target mRNA inhibition: 17%

TCTTAACTCAAAGTCC (sugars k3 d10 k3, PS)
target mRNA inhibition: 39%

TAACCTATTGACTATA (sugars k3 d10 k3, PS)
target mRNA inhibition: 22%

TATAGACGGAGAACAA (sugars k3 d10 k3, PS)
target mRNA inhibition: 30%

CGCAACTGAGCCCCAG (sugars k3 d10 k3, PS)
target mRNA inhibition: 18%

TAAATTACACCAGTCC (sugars k3 d10 k3, PS)
target mRNA inhibition: 44%

TTCCGCTCAAATCCTG (sugars k3 d10 k3, PS)
target mRNA inhibition: 35%

TCTAACAGCACATCAT (sugars k3 d10 k3, PS)
target mRNA inhibition: 22%

CTTCAGACAAGATTCA (sugars k3 d10 k3, PS)
target mRNA inhibition: 24%

Reference: the OligoGym collection
